Laboratory results from PubChem BioAssay (NCI).
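Results reflect a 48-hour exposure of cells in 96-well plates to compound at five concentrations. The concentration for 50% growth inhibition is given as GI50. Definition used: TGI = concentration required for complete inhibition of growth.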

Tests used:
Test in all cases: NCI tumour cell line growth inhibition, 48 h
[1] = system: CAKI-1 renal
[2] = system: OVCAR-4 ovarian
[3] = system: TK-10 renal
[4] = system: KM12 colon
[5] = system: SK-MEL-5 melanoma
[6] = system: MALME-3M melanoma
[7] = system: UO-31 renal
[8] = system: SF-268 CNS
[9] = system: T-47D breast
[10] = system: BT-549 breast

SMILES	TGI [1] [µM]	TGI [2] [µM]	TGI [3] [µM]	TGI [4] [µM]	TGI [5] [µM]	TGI [6] [µM]	TGI [7] [µM]	TGI [8] [µM]	GI50 [9] [µM]	TGI [9] [µM]	GI50 [10] [µM]	TGI [10] [µM]	GI50 [1] [µM]	GI50 [2] [µM]	GI50 [4] [µM]	GI50 [5] [µM]	GI50 [8] [µM]	GI50 [6] [µM]	GI50 [7] [µM]	GI50 [3] [µM]
C[C@]12CCC(=O)C=C1CC[C@@H]1C2CC[C@]2(C)Nc3[nH]ncc3CC12 (stereo partly specified)	> 100	> 100	> 100	> 100	> 100	> 100	> 100													
CCN(CC)CCSc1c2ccccc2nc2c(OC)ccc(OC)c12	> 22.2	> 20	17.3	16.8	16.5	> 60.9	33.9	26.1												
COc1ccc(-c2nsc3c2NC(=O)CC3c2cccc(OC)c2)cc1 (stereo unspecified)	> 100	> 100		> 100	17.5	66.1	> 100	> 100	0.871	> 100	2.87	> 100	1.38	7.4	0.505	0.445	4.53	2.32	3.1	
CCCCCCCN=C(N)c1ccc(N2CCN(c3ccc(C(N)=NCCCCCCC)cc3)CC2)cc1	21.4	> 13.2	1.93	> 100	0.0141		> 100	0.317		> 93.4			0.474	1.05	> 100				0.781	0.146
COC12OCCN(C)C1=CC(=O)C1=NNC(C)C12 (stereo unspecified)	> 100		> 100	> 100	> 100		> 100													
CC(C(=O)O)c1cccc(Oc2ccccc2)c1 (stereo unspecified)	> 100		> 100	> 100	> 100	> 100	> 100	> 100	> 100	> 100	> 100	> 100	> 100		> 100	> 100	> 100	> 100	> 100	> 100
O=C1CCC(=O)c2c1c(O)c1ccncc1c2O	42.4	25.6	33	38.9	23.5	29.4	31.4													
[N-]=[N+]=N/C1=C/CCCCC(=O)C1	> 100	> 100	> 100		> 100	> 100	> 100	> 100												
Clc1nc(Cl)nc(Nc2cccc3ccccc23)n1	> 100	> 100	> 100	> 100	> 100	> 100	> 100	> 100	98.5	> 100			> 100	> 100	93.7	67.3	> 100	76.9	26.5	> 100
CN(C)CCSc1cc(-c2ccccc2)c2ccccc2n1	30.9		19.4	29	4.7	26	23	27.1		34.4		24.8								
Cc1ccc(S(=O)OCc2c(C)c(C)c(COS(=O)c3ccc(C)cc3)c(C)c2C)cc1 (stereo unspecified)	> 100	> 100	> 100	> 100	> 100	> 100	> 100	> 100												
COc1cccc2c1C(=O)c1c(O)c3c(c(O)c1C2=O)C[C@@](O)(/C(C)=N/NC(=O)c1ccc(Cl)cc1)C[C@@H]3OC1CC(N)C(O)C(C)O1 (stereo partly specified)	5.98	2.31	0.723	2.44			4.55		0.163	1.79			0.708	0.348	0.326				0.488	0.178
O=C(Nc1ccc(Cl)c(C(F)(F)F)c1)c1ccc(NC2=C(Cl)C(=O)N(Cc3ccccc3)C2=O)cc1	38.6	69.9	34.4	47.3				9.02	6.11	> 100	2.28	5.78	19.4	11.4	20.3		2.76			19.4
O=S(=O)(Nc1ccc(Cl)cc1Cl)c1ccc(-c2cnc(C3CC3)o2)cc1	55.9	> 100	79.6	25.9	14.1		37.1	72.9	0.475	> 85.8	0.663	36.3	0.505	3.72	0.485	0.555	2.85		1.06	5.03
CCOC(=O)c1ccc(N=Nc2cc(C(=O)OCC)ccc2O)cc1	> 100		> 100		> 100		> 100	> 100												
CSc1ccccc1C#C/C=C\C#Cc1ccccc1N	1.68	71		10.4	16.4		> 100	25.4	17.6	38.6	3.27	9.17	0.32	29.9	2.92	3.71	3.3		17	
Cn1c2ccccc2c2ncc3[nH]c4ccccc4c3c21	68.8	32.1	45.1	33.9	40	> 100	26.9	61.8												
COc1ccc(/C(=C\C=C(C#N)C#N)Sc2nc3ccccc3s2)cc1	> 50		11.8	31.3	16.5		> 50	25.2	6.82	27	6.51	17.5	15.8		10.6	7.87	8.53		15.6	5.43

SMILES	TGI [1] [µM]	TGI [2] [µM]	TGI [3] [µM]	TGI [4] [µM]	TGI [5] [µM]	TGI [6] [µM]	TGI [7] [µM]	TGI [8] [µM]	GI50 [9] [µM]	TGI [9] [µM]	GI50 [10] [µM]	TGI [10] [µM]	GI50 [1] [µM]	GI50 [2] [µM]	GI50 [4] [µM]	GI50 [5] [µM]	GI50 [8] [µM]	GI50 [6] [µM]	GI50 [7] [µM]	GI50 [3] [µM]
CS/C(=C(\S)c1ccccc1)c1ccccc1	> 100	> 100	> 100	> 100	> 100	> 100	> 100	> 100												
O=C1c2cc3c(cc2-c2c1c1cc(Cl)c(Cl)cc1c(=O)n2C[C@H](O)CO)OCO3			0.934		0.0134	0.156		2.7	< 0.01	0.0334	< 0.01	0.455				< 0.01	< 0.01	0.0154		0.0578
Cc1ccc2c(C3C(C#N)=C(N)Oc4cc5ccccc5cc43)cc(=O)oc2c1 (stereo unspecified)		> 100	> 100	> 100	19.9		> 100	> 100	1.49	64	3.67	64.3		11.4	0.724	0.856	3.07		7.68	17.6
O=C(O)c1ccc(C(=O)O)c2c(C(=O)O)ccc(C(=O)O)c12	> 100	> 100	> 100	> 100	> 100	> 100	> 100	> 100		> 100										
CC(C)=CCc1cc(O)cc2c1OC(C=C(C)C)C1=C2C(=O)C2=C(C1=O)S(=O)(=O)CCN2 (stereo unspecified)		6.72	> 16.7	> 16.7	5.05	3.64	> 16.7	8.37	3.57	12.7	5.18	> 16.7		2.77	5.8	2.75	2.91	1.69	6.23	> 16.7
CC(C)OC(=O)[C@H](C)NP(=O)(OC[C@H]1O[C@@H](n2ccc(=O)[nH]c2=O)[C@](C)(F)[C@@H]1O)Oc1ccccc1 (stereo partly specified)		> 100	> 100	> 100	> 100	> 100	> 100	> 100	> 100	> 100	> 100	> 100		> 100	> 100	> 100	> 100	> 100	> 100	> 100
O=C(Nc1cc(C(F)(F)F)ccc1Cl)c1cccc(NC2=C(Cl)C(=O)N(Cc3ccccc3)C2=O)c1	> 100	> 100	> 100	> 100	> 100		58.2	> 100	81.1	> 100	15.6	> 100	89.3	> 100	52.9	12.8	29.2		0.7	34.2
CC(=O)N1CCC(=O)/C(=C/c2ccccc2)C1	30	37.8	> 100	51.6	> 100	> 100	> 100	62.6												
C=CCN1CCC23c4c5ccc(O)c4OC2C(=NN=C2CCC4(O)C6Cc7ccc(O)c8c7C4(CCN6CC=C)C2O8)CCC3(O)C1C5 (stereo unspecified)	> 100	40.8	43.7	42.4	36.3	33.4	> 100	> 100												
CC(C)=CCc1cc2c(cc1O)OC[C@H]1c3cc4c(cc3O[C@@H]21)OCO4	> 100	> 100	> 100	> 100	39.3		> 100	> 100		> 100		95.3								
CN(C)CCNC(=O)c1cccc2c(Nc3ccc(S(=O)(=O)N=C(N)N)cc3)c3ccccc3nc12		30	> 100	> 100	27.9		48.6	26.6												
O=[P@@]1(c2ccccc2)O[C@H](COCc2ccccc2)[C@@H](OCc2ccccc2)[C@H](OCc2ccccc2)[C@H]1NCc1ccccc1	8.66	48.9	> 100	47.3	6.79			> 100	2.85	7.92	2.89	16.2	2.15	3.47	3.21	2.59	3.47			3.69
CCOC(=O)/C=C/c1ccc(C#Cc2ccccc2)cc1	> 100	> 100	> 100	> 100	> 100	> 100	> 100	> 100	86.8	> 100			> 100	68.4	> 100	68.5	> 100	98.3	38.4	> 100
Cc1nc2cc(Nc3nc(Nc4ccc(F)cc4)nc(-c4cccs4)n3)ccc2n1Cc1ccccc1	> 100	34.8		16.7	17.3		17.5	> 100	2.6	9.33	15.8	40.7	5.45	3.24	3.12	4.18	9.74		3.75	
COc1ccc(Cn2c(N)c(S(=O)(=O)c3ccc(Cl)cc3)c3nc(C#N)c(C#N)nc32)cc1	> 50	> 50	41.5	> 50	> 50		> 50	42.3	> 50	> 50	34.3	> 50	21.9	25.2	28	49.4	9.25		32.6	11.6
COc1cc(/C=C\c2cc(OC)c(OC)c(OC)c2)cc(N/C=C\C(=O)c2cc(OC)c(OC)c(OC)c2)c1OC	> 100	> 100	> 100	> 100	4.48	> 100	> 100	> 100	1.68	6.83			3.37	2.91	3.21	1.69	6.04	2.91	2.63	5.93
COC(=O)c1s/c(=N\C(=S)N(C)C)n(-c2ccc(Cl)cc2)c1C(=O)OC	> 100	> 100	> 100	> 100	> 10	> 100	> 100	> 100												
